Results on two compounds are retold here after PMC11699025 (Natural Products and Bioprospecting, 2025).

In data set [1] the target is T1, SARS-CoV PLpro (Severe acute respiratory syndrome coronavirus, UniProt P0C6X7). The experiment in a line: biochemical.
Data set [2] deals with HCoV-OC43. The experiment in a line: microbe, parasite or virus in culture. The class given is cell-based, human coronavirus OC43. To be noted: for EC50: Betacoronavirus 1, OC43, RD, 48 h.
Data set [3] deals with RD cells. To be noted: concentrations up to 100 µM.
The target of data set [4] is T2, MERS-CoV PLpro (Middle East respiratory syndrome-related coronavirus, UniProt K9N7C7). The experiment in a line: biochemical. The data set is classed as binding.
T2 sequence (K9N7C7 1552-1823 limits assumed): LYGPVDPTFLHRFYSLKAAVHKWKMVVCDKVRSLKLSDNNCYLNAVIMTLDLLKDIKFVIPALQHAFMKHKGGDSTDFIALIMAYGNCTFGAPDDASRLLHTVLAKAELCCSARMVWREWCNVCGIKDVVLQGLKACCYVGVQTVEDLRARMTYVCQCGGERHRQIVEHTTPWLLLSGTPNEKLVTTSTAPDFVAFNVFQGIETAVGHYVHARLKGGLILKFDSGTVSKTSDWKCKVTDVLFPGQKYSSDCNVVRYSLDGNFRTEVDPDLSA
In data set [5] the target is T3, BtCoV Rp3 PLpro (Bat coronavirus Rp3/2004, UniProt P0C6W6). The experiment in a line: biochemical. The data set is classed as binding.
For data set [6], the target named is T2, MERS-CoV PLpro. The class given is binding.
Data set [7] addresses T4, BtCoV Rp3 Mpro (Bat coronavirus Rp3/2004, UniProt P0C6W6). The experiment in a line: biochemical. The data set is classed as binding.
The target in data set [8] is T4, BtCoV Rp3 Mpro. The experiment in a line: biochemical.
Data set [9] has as its target T5, SARS-CoV Mpro (Severe acute respiratory syndrome coronavirus, UniProt P0C6X7). The data set is classed as binding.
Data set [10] has as its target T1, SARS-CoV PLpro. The experiment in a line: biochemical. The data set is classed as binding.
For data set [11], the target named is T3, BtCoV Rp3 PLpro. The data set is classed as binding.
In data set [12] the target is T6, MERS-CoV Mpro (Middle East respiratory syndrome-related coronavirus, UniProt K9N7C7). The data set is classed as binding.
T6 sequence (K9N7C7 3248-3553 limits assumed): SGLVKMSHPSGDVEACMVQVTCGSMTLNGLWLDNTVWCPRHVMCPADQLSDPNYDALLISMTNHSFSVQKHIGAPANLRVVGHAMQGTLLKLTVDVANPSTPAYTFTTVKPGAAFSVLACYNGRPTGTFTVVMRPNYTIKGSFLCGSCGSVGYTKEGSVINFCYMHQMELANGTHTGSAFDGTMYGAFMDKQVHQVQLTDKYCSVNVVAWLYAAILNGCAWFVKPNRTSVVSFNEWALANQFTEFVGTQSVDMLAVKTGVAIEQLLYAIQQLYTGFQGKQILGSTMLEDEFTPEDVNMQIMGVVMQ
Data set [13] addresses T6, MERS-CoV Mpro. The experiment in a line: biochemical. The class given is binding.
Data set [14] deals with SARS-CoV-2 PLpro WT (Severe acute respiratory syndrome coronavirus 2, UniProt P0DTD1). The data set is classed as binding.
Data set [15] deals with T5, SARS-CoV Mpro. The experiment in a line: biochemical. The data set is classed as binding.
Data set [16] is described as follows: in vitro. To be noted: human.
Data set [17] deals with T7, SARS-CoV-2 PLpro (Severe acute respiratory syndrome coronavirus 2, UniProt P0DTD1). The experiment in a line: biochemical.
In data set [18] the target is T7, SARS-CoV-2 PLpro. The experiment in a line: biochemical. The data set is classed as binding. To be noted: pH 7.4, read-out: ka.
Data set [19] concerns the target T8, SARS-CoV-2 Mpro (Severe acute respiratory syndrome coronavirus 2, UniProt P0DTD1). The experiment in a line: biochemical.
In data set [20] the target is T8, SARS-CoV-2 Mpro. The experiment in a line: biochemical. The class given is binding. To be noted: pH 7.4, read-out: ka.

“And” between values parts separate entries of the source, which are not always exact repeats. Equal entries are not always repeated. Bounds are passed on as bounds.

As a reminder, the IC50 is the concentration that inhibits the measured activity by half. A higher IC50 goes with lower potency. As usually defined, the EC50 is the concentration giving half of the maximal effect. A lower EC50 goes with higher potency in that assay. Usually Kd stands for the concentration at which binding is half-saturated. As to `Cc1cc(O)c(O)c(Oc2cc(C)cc(O)c2Oc2cc(C)cc(O)c2O)c1` [Sydowiol B, sydowiol B], the IC50 was determined as 2420 ± 1100 nM in data set [1] and 1160 ± 1230 nM in [8]. In data set [2], this compound displayed a 50% effective concentration (EC50) of 690 ± 100 nM. In addition, the “influence on cell viability” value in data set [3] is given as “no influence”. For the same compound, the Kd worked out at 450 nM in [4]; 11800 nM in [5]; 1930 nM in data set [7]; 14200 nM in data set [10]; 9350 nM in [13]; 2540 nM in data set [15]. For the same compound, the Tm value in data set [6] is 57.67 ± 0.32 (2.78) ℃ and 57.20 ± 0.13 (2.31) ℃ and 56.95 ± 0.13 (2.06) ℃; in data set [9] it was 57.17 ± 0.19 (1.25) ℃ and 56.82 ± 0.25 (0.90) ℃ and 56.37 ± 0.28 (0.45) ℃; in data set [11] it was 53.59 ± 0.20 (4.00) ℃ and 53.87 ± 0.13 (4.28) ℃ and 52.79 ± 0.27 (3.20) ℃; in data set [12], 47.47 ± 0.33 (1.37) ℃ and 47.33 ± 0.00 (1.23) ℃ and 47.27 ± 0.16 (1.17) ℃; in data set [14], 51.24 ± 0.36 (5.29) ℃ and 50.31 ± 0.06 (4.36) ℃. Moreover, the “△Tm” value in data set [11] is 53.59 ± 0.20 (4.00) ℃ and 53.87 ± 0.13 (4.28) ℃ and 52.79 ± 0.27 (3.20) ℃. Also, the CC50 at 48 h in data set [16] was over 200000 nM.

With `Cc1cc(O)c(O)c(Oc2cc(C)cc(O)c2O)c1` [Violaceol I, violaceol I], the “Selection Index (SI)” value in data set [2] is “>42.02”. The 50% effective concentration (EC50) in [2] was 2380 ± 20 nM. Moreover, the “influence on cell viability” value in data set [3] is given as “no influence”. The IC50 in data set [17] was 42300 ± 1020 nM; in data set [19], 8270 ± 1150 nM. The kon in data set [4] (pH 7.4, read-out: ka) is 479 M⁻¹ s⁻¹; in data set [5] (pH 7.4, read-out: ka), 551 M⁻¹ s⁻¹; in data set [7] (pH 7.4, read-out: ka), 532 M⁻¹ s⁻¹; in data set [10] (pH 7.4, read-out: ka) it was 516 M⁻¹ s⁻¹; in data set [18], 494 M⁻¹ s⁻¹; in data set [13] (pH 7.4, read-out: ka), 454 M⁻¹ s⁻¹. Also, the kon in data set [15] (pH 7.4, read-out: ka) was found to be 547 M⁻¹ s⁻¹; in data set [20] it was 969 M⁻¹ s⁻¹. The same compound had a CC50 at 48 h in [16] of over 100000 nM.
